In publication PMC7534351, “Imidazothiazole-based potent inhibitors of V600E-B-RAF kinase with promising anti-melanoma activity: biological and computational studies” (Journal of Enzyme Inhibition and Medicinal Chemistry, 2020):
Where two headings read alike, the source gives them in different places. Blank lines part the entries; values can stand above or below the compound they belong to.

How the values were obtained:
RAF1 = RAF1 (Homo sapiens, UniProt P04049); test: Cell-free kinase profiling, RAF1; type: biochemical; details: for One-dose (1 µM) results against RAF1 (% inhibition) / inhibition at 1 µM: mean of duplicate assays ± SEM; for inhibition at 1 µM: read-out: One-dose (1 µM) results against RAF1 (% inhibition)
Sequence of RAF1 (P04049 whole entry): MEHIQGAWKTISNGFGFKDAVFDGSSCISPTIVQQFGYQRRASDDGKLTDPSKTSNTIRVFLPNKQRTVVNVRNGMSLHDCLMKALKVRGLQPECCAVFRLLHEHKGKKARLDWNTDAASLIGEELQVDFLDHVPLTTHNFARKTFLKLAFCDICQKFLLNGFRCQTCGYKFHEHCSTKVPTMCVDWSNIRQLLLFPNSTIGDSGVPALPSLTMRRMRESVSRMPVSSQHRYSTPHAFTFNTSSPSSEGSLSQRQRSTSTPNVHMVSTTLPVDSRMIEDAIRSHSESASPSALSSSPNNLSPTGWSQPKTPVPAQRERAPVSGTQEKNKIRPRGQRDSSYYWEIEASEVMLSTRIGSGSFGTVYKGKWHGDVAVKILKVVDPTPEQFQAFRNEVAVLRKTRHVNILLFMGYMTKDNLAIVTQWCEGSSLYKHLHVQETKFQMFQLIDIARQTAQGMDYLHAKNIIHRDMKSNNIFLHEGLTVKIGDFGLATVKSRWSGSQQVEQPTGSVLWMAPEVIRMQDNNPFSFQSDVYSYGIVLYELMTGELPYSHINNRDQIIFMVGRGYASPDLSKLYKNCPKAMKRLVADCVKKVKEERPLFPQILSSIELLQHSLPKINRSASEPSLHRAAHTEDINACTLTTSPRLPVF
Method: (§1) In a final volume of 25 µL, the tested kinase (5–10 mU) was incubated with 25 mM Tris pH 7.5, 0.02 mM EDTA, 0.66 mg/mL myelin basic protein, 10 mM magnesium acetate and [γ^33P-ATP] (specific activity approx. 500 cpm/pmol, concentration as required). The reaction was initiated by the addition of the Mg-ATP mix. After incubation for 40 min at room temperature, the reaction was stopped by the addition of 5 µL of a 3% phosphoric acid solution. 10 µL of the reaction was then spotted onto a P30 filtermat and washed three times for 5 min in 75 mM phosphoric acid and once in methanol before drying and scintillation counting.

V600E-B-RAF [1] = biological target: T1, V600E-B-RAF (Homo sapiens, UniProt P15056, V600E); test: Cell-free kinase profiling, V600E-B-RAF; type: biochemical; details: for One-dose (1 µM) results against V600E-B-RAF (% inhibition) / inhibition at 1 µM: mean of duplicate assays ± SEM; for inhibition at 1 µM: read-out: One-dose (1 µM) results against V600E-B-RAF (% inhibition)
Method: The reaction was initiated by the addition of the Mg-ATP mix. After incubation for 40 min at room temperature, the reaction was stopped by the addition of 5 µL of a 3% phosphoric acid solution. 10 µL of the reaction was then spotted onto a P30 filtermat and washed three times for 5 min in 75 mM phosphoric acid and once in methanol before drying and scintillation counting.
Target sequence in this assay (P15056 whole entry V600E): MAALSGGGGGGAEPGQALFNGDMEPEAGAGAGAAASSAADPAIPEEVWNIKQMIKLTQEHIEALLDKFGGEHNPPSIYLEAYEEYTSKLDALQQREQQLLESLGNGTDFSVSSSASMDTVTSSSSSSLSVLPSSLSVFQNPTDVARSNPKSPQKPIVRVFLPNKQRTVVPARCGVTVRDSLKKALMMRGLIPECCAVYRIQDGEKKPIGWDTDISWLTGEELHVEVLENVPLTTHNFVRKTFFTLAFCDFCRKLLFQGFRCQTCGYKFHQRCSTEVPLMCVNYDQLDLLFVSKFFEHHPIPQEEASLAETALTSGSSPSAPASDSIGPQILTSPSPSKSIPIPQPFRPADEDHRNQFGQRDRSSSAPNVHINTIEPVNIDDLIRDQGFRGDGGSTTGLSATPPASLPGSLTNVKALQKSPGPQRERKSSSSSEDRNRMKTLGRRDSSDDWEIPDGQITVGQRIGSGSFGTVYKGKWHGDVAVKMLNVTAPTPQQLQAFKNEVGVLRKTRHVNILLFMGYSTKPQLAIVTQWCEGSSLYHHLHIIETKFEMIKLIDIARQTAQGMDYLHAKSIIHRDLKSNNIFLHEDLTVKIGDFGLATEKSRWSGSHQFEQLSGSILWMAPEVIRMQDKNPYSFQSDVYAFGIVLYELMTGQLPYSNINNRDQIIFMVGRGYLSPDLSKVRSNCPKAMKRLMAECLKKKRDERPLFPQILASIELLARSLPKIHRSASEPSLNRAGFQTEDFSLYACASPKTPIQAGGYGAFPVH

ROS = ROS (Homo sapiens, UniProt P08922); test: Kinase panel, ROS; type: biochemical; details: mean ± SEM
Method: as §1

A375 melanoma cell line = test: MTT assay, A375; type: cell-based; details: Homo sapiens, A-375, 48 h, mean of triplicate assays ± SEM, read-out: Antiproliferative activity (IC50 value, µM) A375
Method: (§2) The melanoma and normal skin cell lines were maintained in DMEM including 10% foetal bovine serum (FBS) and 1% penicillin/streptomycin in a humid atmosphere containing 5% carbon dioxide at 37 °C. […] The cells were incubated for 48 h following treatment with the test compounds. The cellular viability was assessed by the conventional 3–(4,5-dimethylthiazol-2-yl)-2,5-diphenyltetrazolium bromide (MTT) reduction assay. MTT assays were carried out with CellTiter 96® (Promega) according to the manufacturer’s instructions. The absorbance at 590 nm was recorded using EnVision 2103 (Perkin Elmer; Boston, MA, USA). The IC50 values were calculated using GraphPad Prism 4.0 software. Triplicate testing was performed.

JAK2 = JAK2 (Homo sapiens, UniProt O60674); test: Kinase panel, JAK2; type: biochemical; details: mean ± SEM
Method: as §1

PDGFRβ = PDGFRβ (Homo sapiens, UniProt P09619); test: Kinase panel, PDGFRβ; type: biochemical; details: mean ± SEM
Method: as §1

[2] = tested on: MDA-MB-435 melanoma cell line; test: MTT assay, MDA-MB-435; type: cell-based; details: Homo sapiens, 48 h, mean of triplicate assays ± SEM, read-out: Antiproliferative activity (IC50 value, µM) MDA-MB-435
Method: as §2

[3] = tested on: UACC-62 melanoma cell line; test: MTT assay, UACC-62; type: cell-based; details: Homo sapiens, 48 h, mean of triplicate assays ± SEM, read-out: Antiproliferative activity (IC50 value, µM) UACC-62
Method: as §2

Aurora-A = Aurora-A (Homo sapiens, UniProt O14965); test: Kinase panel, Aurora-A; type: biochemical; details: mean ± SEM
Sequence of Aurora-A (O14965 whole entry): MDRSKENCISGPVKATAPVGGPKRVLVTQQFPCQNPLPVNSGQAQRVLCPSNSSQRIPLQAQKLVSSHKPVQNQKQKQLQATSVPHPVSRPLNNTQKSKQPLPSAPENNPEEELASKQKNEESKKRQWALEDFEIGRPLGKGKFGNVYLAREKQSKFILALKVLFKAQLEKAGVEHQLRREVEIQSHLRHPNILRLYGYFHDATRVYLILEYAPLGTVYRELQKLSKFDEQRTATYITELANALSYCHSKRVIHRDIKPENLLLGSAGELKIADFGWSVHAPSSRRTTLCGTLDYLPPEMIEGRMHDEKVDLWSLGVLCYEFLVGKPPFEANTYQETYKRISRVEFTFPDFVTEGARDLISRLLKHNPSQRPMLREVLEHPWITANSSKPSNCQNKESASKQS
Method: as §1

TRKA = TRKA (Homo sapiens, UniProt P04629); test: Kinase panel, TRKA; type: biochemical; details: mean ± SEM
Method: as §1

PI3Kα = PI3Kα (Homo sapiens, UniProt P42336); test: Kinase panel, PI3Kα; type: biochemical; details: mean ± SEM
Method: as §1

FMS = FMS (Homo sapiens, UniProt P07333); test: Kinase panel, FMS; type: biochemical; details: mean ± SEM
Method: as §1

ALK = ALK (Homo sapiens, UniProt Q9UM73); test: Kinase panel, ALK; type: biochemical; details: mean ± SEM
Method: as §1

PI3K-C2α = PI3K-C2α (Homo sapiens, UniProt O00443); test: Kinase panel, PI3K-C2α; type: biochemical; details: mean ± SEM
Method: as §1

EGFR = EGFR (Homo sapiens, UniProt P00533); test: Kinase panel, EGFR; type: biochemical; details: mean ± SEM
Sequence of EGFR (P00533 25-1210): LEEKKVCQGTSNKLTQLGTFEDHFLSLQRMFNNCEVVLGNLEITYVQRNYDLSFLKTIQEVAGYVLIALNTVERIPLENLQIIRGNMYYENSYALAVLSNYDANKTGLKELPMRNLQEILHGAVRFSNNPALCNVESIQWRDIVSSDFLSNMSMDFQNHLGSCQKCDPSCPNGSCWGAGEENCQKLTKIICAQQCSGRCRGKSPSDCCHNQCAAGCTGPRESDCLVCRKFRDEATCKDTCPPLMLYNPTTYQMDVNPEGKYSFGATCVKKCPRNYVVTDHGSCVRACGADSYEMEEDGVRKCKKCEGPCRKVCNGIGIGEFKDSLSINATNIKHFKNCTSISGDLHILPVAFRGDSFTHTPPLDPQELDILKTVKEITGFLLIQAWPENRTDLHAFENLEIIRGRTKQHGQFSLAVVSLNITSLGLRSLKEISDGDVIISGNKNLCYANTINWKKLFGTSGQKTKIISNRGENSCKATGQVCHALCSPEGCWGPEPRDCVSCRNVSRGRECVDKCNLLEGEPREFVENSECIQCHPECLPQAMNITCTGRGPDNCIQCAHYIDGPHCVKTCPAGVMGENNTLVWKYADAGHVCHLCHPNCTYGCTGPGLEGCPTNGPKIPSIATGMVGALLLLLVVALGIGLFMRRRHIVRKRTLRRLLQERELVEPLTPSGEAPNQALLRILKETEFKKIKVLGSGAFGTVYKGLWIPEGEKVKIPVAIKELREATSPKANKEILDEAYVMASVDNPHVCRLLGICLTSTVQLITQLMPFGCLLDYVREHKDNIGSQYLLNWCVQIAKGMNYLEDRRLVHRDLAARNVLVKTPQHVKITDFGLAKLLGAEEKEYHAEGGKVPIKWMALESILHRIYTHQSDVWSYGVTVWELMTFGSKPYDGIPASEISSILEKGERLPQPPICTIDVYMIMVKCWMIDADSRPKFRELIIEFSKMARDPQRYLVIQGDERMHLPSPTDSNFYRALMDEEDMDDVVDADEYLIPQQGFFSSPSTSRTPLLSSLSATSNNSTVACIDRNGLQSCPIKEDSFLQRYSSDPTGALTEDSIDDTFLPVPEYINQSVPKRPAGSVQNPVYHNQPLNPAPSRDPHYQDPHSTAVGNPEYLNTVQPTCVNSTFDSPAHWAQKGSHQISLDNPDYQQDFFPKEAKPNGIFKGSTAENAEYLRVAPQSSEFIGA
Method: as §1

ABL = ABL (Homo sapiens, UniProt P00519); test: Kinase panel, ABL; type: biochemical; details: mean ± SEM
Method: as §1

ErbB2 = ErbB2 (Homo sapiens, UniProt P04626); test: Kinase panel, ErbB2; type: biochemical; details: mean ± SEM
Method: as §1

FLT3 = FLT3 (Homo sapiens, UniProt P36888); test: Kinase panel, FLT3; type: biochemical
Sequence of FLT3 (P36888 27-993, species assumed): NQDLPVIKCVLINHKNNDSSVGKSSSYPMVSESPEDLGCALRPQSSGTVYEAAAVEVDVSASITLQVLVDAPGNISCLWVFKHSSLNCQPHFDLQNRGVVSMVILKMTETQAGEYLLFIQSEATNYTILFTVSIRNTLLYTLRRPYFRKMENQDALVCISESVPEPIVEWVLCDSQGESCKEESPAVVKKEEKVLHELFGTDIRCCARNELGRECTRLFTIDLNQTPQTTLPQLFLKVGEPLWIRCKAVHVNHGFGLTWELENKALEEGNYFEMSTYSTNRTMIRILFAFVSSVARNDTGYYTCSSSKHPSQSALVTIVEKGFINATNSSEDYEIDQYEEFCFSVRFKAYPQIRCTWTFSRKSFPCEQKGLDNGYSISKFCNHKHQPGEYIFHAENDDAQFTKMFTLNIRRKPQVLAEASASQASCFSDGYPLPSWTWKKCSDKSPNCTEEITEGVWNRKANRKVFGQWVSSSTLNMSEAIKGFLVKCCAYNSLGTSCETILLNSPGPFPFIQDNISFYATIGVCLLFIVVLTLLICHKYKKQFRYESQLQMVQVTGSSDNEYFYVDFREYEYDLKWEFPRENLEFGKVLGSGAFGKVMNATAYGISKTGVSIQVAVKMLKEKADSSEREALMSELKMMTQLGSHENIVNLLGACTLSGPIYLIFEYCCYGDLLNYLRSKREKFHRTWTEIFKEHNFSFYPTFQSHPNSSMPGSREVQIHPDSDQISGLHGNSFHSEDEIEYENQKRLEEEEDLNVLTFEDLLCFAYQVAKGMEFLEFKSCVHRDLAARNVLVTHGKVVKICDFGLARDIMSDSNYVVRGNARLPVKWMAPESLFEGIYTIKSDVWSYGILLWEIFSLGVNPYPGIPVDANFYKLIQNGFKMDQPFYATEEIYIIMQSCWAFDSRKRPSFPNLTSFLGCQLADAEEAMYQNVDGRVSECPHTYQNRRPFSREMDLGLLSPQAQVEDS
Method: as §1

cKIT = cKIT (Homo sapiens, UniProt P10721); test: Kinase panel, cKIT; type: biochemical; details: mean ± SEM
Sequence of cKIT (P10721 26-976): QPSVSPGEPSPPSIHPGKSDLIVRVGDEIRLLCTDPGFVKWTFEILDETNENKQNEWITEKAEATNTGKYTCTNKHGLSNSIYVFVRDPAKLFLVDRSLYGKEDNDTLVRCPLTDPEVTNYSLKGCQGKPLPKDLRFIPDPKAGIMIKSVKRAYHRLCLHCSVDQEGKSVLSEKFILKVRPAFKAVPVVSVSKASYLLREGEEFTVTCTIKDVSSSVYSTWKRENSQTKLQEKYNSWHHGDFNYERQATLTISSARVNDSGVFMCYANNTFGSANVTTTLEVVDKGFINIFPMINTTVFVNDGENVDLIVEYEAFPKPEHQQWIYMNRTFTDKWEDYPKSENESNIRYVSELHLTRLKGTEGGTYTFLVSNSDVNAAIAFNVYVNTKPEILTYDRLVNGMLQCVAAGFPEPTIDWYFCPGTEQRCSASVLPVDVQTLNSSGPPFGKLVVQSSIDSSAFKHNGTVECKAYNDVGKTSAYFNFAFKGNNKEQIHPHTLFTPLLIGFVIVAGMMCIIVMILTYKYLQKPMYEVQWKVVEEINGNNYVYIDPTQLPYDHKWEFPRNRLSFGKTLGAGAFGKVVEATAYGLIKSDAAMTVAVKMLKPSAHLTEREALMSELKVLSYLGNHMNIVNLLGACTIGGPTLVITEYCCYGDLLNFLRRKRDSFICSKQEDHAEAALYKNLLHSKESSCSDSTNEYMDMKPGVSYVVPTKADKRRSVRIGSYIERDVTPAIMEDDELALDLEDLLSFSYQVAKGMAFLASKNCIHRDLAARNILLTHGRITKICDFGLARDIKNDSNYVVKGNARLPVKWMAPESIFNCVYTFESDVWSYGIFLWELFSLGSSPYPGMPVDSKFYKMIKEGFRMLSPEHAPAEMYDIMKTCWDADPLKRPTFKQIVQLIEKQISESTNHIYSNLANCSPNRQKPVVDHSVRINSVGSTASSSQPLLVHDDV
Method: as §1

[4] = tested on: CCD1106K normal skin epithelial cell line; test: MTT assay, CCD1106K normal skin cells; type: cell-based; details: 48 h, mean of triplicate assays ± SEM, read-out: Antiproliferative activity (IC50 value, µM) CCD1106K normal skin cells
Method: as §2

MEK2 = MEK2 (Homo sapiens, UniProt P36507); test: Kinase panel, MEK2; type: biochemical; details: mean ± SEM
Method: as §1

BTK = BTK (Homo sapiens, UniProt Q06187); test: Kinase panel, BTK; type: biochemical; details: mean ± SEM
Method: as §1

MEK1 = MEK1 (Homo sapiens, UniProt Q02750); test: Kinase panel, MEK1; type: biochemical; details: mean ± SEM
Method: as §1

KDR = KDR (Homo sapiens, UniProt P35968); test: Kinase panel, KDR; type: biochemical; details: mean ± SEM
Method: as §1

four melanoma cell lines = test: MTT assay, four melanoma cell lines (range); type: cell-based; details: range over A375, MDA-MB-435, SK-MEL-28, UACC-62; read-out: IC50 against four melanoma cell lines (range)
Method: as §2

[5] = tested on: SK-MEL-28 melanoma cell line; test: MTT assay, SK-MEL-28; type: cell-based; details: Homo sapiens, 48 h, mean of triplicate assays ± SEM, read-out: Antiproliferative activity (IC50 value, µM) SK-MEL-28
Method: as §2

V600E-B-RAF [6] = biological target: T1, V600E-B-RAF; test: In-cell kinase assay (MEK1 phosphorylation ELISA in MEF-V600E-B-RAF:ER cells); type: cell-based; details: MEF cell line, phospho-MEK1 readout, 90 min compound incubation; read-out: in-cell V600E-B-RAF kinase inhibition IC50
Method: MEF-V600E-B-RAF:ER cells were plated in Dulbecco’s modified eagle medium (DMEM) supplemented with 10% FCS in multiwell cell culture plates. Compound incubation (90 min at 37 °C) was done in serum-free medium. […] For stimulation, cells were treated with 1 µM hydroxytamoxifen for 1 h at room temperature. After cell lysis, quantification of MEK1 phosphorylation was assessed in 96-well plates via sandwich-ELISA using a MEK1 specific capture antibody and a phospho-MEK1-Ser218/222 specific detection antibody.

mTOR = mTOR (Homo sapiens, UniProt P42345); test: Kinase panel, mTOR; type: biochemical; details: mean ± SEM
Method: as §1

ErbB4 = ErbB4 (Homo sapiens, UniProt Q15303); test: Kinase panel, ErbB4; type: biochemical; details: mean ± SEM
Method: as §1

JNK1(α1) = JNK1(α1) (Homo sapiens, UniProt P45983); test: Kinase panel, JNK1(α1); type: biochemical; details: mean ± SEM
Method: as §1

JAK1 = JAK1 (Homo sapiens, UniProt P23458); test: Kinase panel, JAK1; type: biochemical; details: mean ± SEM
Method: as §1

B-RAF^wt = B-RAF^wt (Homo sapiens, UniProt P15056); test: Kinase panel, B-RAF wt; type: biochemical; details: mean ± SEM
Sequence of B-RAF^wt (P15056 whole entry): as the sequence (P15056 whole entry V600E) above, with E600V counted along it
Method: as §1

LCK = LCK (Homo sapiens, UniProt P06239); test: Kinase panel, LCK; type: biochemical; details: mean ± SEM
Method: as §1

DMPK = DMPK (Homo sapiens, UniProt Q09013); test: Kinase panel, DMPK; type: biochemical; details: mean ± SEM
Method: as §1

VRK1 = VRK1 (Homo sapiens, UniProt Q99986); test: Kinase panel, VRK1; type: biochemical; details: mean ± SEM
Method: as §1

30-kinase panel = 30-kinase panel as a whole; type: biochemical; details: 1 µM; all panel kinases apart from V600E-B-RAF and FLT3
Method: as §1

A-RAF = A-RAF (Homo sapiens, UniProt P10398); test: Kinase panel, A-RAF; type: biochemical; details: mean ± SEM
Method: as §1

[7] = 10-dose mode, read-out: IC50 value (nM) against V600E-B-RAF
[8] = from the IC50 values of Table 1, used for QSAR
[9] = 10-dose mode, read-out: IC50 value (nM) against RAF1

Compound: COc1cccc(-c2nc3sccn3c2-c2ccnc(NCCNC(=O)c3ccccc3)n2)c1 [Compound 1u]
- One-dose (1 µM) results against RAF1 (% inhibition) (RAF1): 74.00% ± 0.64%
- One-dose (1 µM) results against V600E-B-RAF (% inhibition) (V600E-B-RAF [1]): 95.03% ± 0.66%
- IC50 (V600E-B-RAF [1]; [7]): 45.1 nM
- pIC50 (V600E- B-RAF) (V600E-B-RAF [1]; [8]): 7.346

Compound: COc1cccc(-c2nc3sccn3c2-c2ccnc(NCCNC(=O)c3ccccc3O)n2)c1 [Compound 1v]
- One-dose (1 µM) results against RAF1 (% inhibition) (RAF1): 59.25% ± 2.53%
- One-dose (1 µM) results against V600E-B-RAF (% inhibition) (V600E-B-RAF [1]): 90.82% ± 0.25%
- IC50 (V600E-B-RAF [1]; [7]): 100 nM
- pIC50 (V600E- B-RAF) (V600E-B-RAF [1]; [8]): 7.000

Compound: O=C(NCCNc1nccc(-c2c(-c3cccc(O)c3)nc3sccn23)n1)c1ccccc1 [Compound 1zb]
- inhibition at 1 µM (ROS): 2.02%
- IC50 (A375 melanoma cell line): 0.46 ± 0.03 µM
- inhibition at 1 µM (JAK2): 3.76%
- inhibition at 1 µM (PDGFRβ): 12.5%
- IC50 [2]: 0.59 ± 0.06 µM
- IC50 [3]: 0.18 ± 0.02 µM
- inhibition at 1 µM (Aurora-A): 49.8%
- inhibition at 1 µM (TRKA): 46.7%
- inhibition at 1 µM (PI3Kα): 5.85%
- inhibition at 1 µM (FMS): 12.2%
- inhibition at 1 µM (ALK): 41.2%
- inhibition at 1 µM (PI3K-C2α): 50%
- inhibition at 1 µM (EGFR): 19.9%
- inhibition at 1 µM (ABL): 7.57%
- inhibition at 1 µM (ErbB2): 2.17%
- inhibition at 1 µM (FLT3; 1 µM, mean ± SEM): 73.1%
- IC50 (FLT3; read-out: IC50 (nM) against FLT3): 838 nM
- inhibition at 1 µM (cKIT): 9.63%
- IC50 [4]: 9.26 ± 0.38 µM
- inhibition at 1 µM (MEK2): 26.6%
- inhibition at 1 µM (BTK): 17%
- inhibition at 1 µM (MEK1): 1.5%
- inhibition at 1 µM (KDR): 18.8%
- IC50 (four melanoma cell lines): 180 to 590 nM
- IC50 [5]: 0.38 ± 0.05 µM
- IC50 (V600E-B-RAF [6]): 190 nM
- inhibition at 1 µM (mTOR): 7.83%
- inhibition at 1 µM (ErbB4): 13.7%
- inhibition at 1 µM (JNK1(α1)): 0.76%
- inhibition at 1 µM (JAK1): -0.26%
- inhibition at 1 µM (RAF1): 99.4%
- IC50 (RAF1; from the IC50 values of Table 1, used for QSAR, read-out: pIC50 (RAF1) (converted)): 8.2 nM
- inhibition at 1 µM (B-RAF^wt): 23.4%
- inhibition at 1 µM (LCK): 12.4%
- inhibition at 1 µM (DMPK): 0.84%
- inhibition at 1 µM (VRK1): 3.93%
- inhibitory effect against all the other kinases of the panel (30-kinase panel): less than 50%
- inhibition at 1 µM (V600E-B-RAF [1]): 99.5%
- IC50 (V600E-B-RAF [1]; [7]): 0.978 nM
- inhibition at 1 µM (A-RAF): 9.14%

Compound: CNC(=O)c1cc(Oc2ccc(NC(=O)Nc3ccc(Cl)c(C(F)(F)F)c3)cc2)ccn1 [Sorafenib, sorafenib, reference compound]
- IC50 (A375 melanoma cell line): 5.45 ± 0.53 µM
- IC50 [2]: 3.16 ± 0.2 µM
- IC50 [3]: 1.95 ± 0.08 µM
- IC50 [4]: 11.6 ± 0.46 µM
- IC50 (four melanoma cell lines): 1950 to 5450 nM

Other lines, results leading:

- One-dose (1 µM) results against RAF1 (% inhibition) (RAF1): 99.32% ± 0.23%
- IC50 (RAF1; [9]): 10.5 nM
- pIC50 (RAF1) (RAF1; [8]): 7.979
- One-dose (1 µM) results against V600E-B-RAF (% inhibition) (V600E-B-RAF [1]): 101.07% ± 1.53%
- IC50 (V600E-B-RAF [1]; [7]): 1.9 nM
- pIC50 (V600E- B-RAF) (V600E-B-RAF [1]; [8]): 8.721
Compound: O=C(NCCNc1nccc(-c2c(-c3cccc(O)c3)nc3sccn23)n1)c1ccccc1O [Compound 1zc]

- inhibition at 1 µM (RAF1): 90.8%
- IC50 (RAF1; [9]): 158 nM
- inhibition at 1 µM (V600E-B-RAF [1]): 99%
- IC50 (V600E-B-RAF [1]; from the IC50 values of Table 1, used for QSAR, read-out: pIC50 (V600E- B-RAF) (converted)): 15.8 nM
Compound: O=C(NCCNc1nccc(-c2c(-c3cccc(O)c3)nc3sccn23)n1)c1ccc(N2CCOCC2)c(C(F)(F)F)c1 [Compound 1zg]
